Data on 3 compounds can be found in patent US12285012B2, “Compositions comprising pyridine carboxylate herbicides with acetolactate synthase (ALS) inhibitor herbicides” (Corteva Agriscience LLC, priority 2018, dated 2025).

SMILES strings stand for the structures.

Common to all, as to type: in vivo
Series [1] deals with grain sorghum (SORVU, Sorghum vulgare). The experiment in a line: Greenhouse postemergence herbicidal effect. The following applies: Compound A 10 g/ha. The procedure, abridged: (§1)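 Plants at second or third true leaf stage, greenhouse-grown (~14 h photoperiod, about 23/22° C), sprayed at 187 L/ha with pyridine carboxylate herbicide (g ae/ha; with cloquintocet-mexyl safener unless noted) alone or plus ALS herbicide (g ai/ha) in 1.25% v/v oil adjuvant. Visual injury, 0 to 100% versus solvent-blank controls, after 20-22 d.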

Series [2] deals with Italian ryegrass (LOLMU, Lolium multiflorum). The experiment in a line: Greenhouse postemergence herbicidal effect. The following applies: Compound A 10 g/ha; safener mefenpyr-diethyl. The procedure, abridged:
as §1

For series [3], the system named is wild oat (AVEFA, Avena fatua). The experiment in a line: Greenhouse postemergence herbicidal effect. The procedure, abridged:
as §1

The test system of series [4] is annual ryegrass (LOLMG=Lolium multiflorum subsp. gaudini). The experiment in a line: Greenhouse postemergence herbicidal effect. Particulars: 10 g/ha. The procedure, abridged:
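Greenhouse plants at the second–third true leaf received overhead sprays (187 L/ha) of herbicide mixtures containing safener and oil adjuvant. Percent control or crop injury was judged by eye 20–22 d later on a 0–100 scale.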

Series [5] relates to nutsedge (CYPES, Cyperus esculentus). The experiment in a line: Greenhouse postemergence herbicidal effect. The procedure, abridged:
as §1

Series [6] concerns cornflower (CENCY, Cyanus segetum). The experiment in a line: Greenhouse postemergence herbicidal effect. The procedure, abridged:
(§2)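 Plants grown in a greenhouse (~14 h photoperiod, about 23 °C day/22 °C night) were sprayed postemergence at the second or third true leaf stage. Formulations contained cloquintocet-mexyl safener; pyridine carboxylate rates are in g ae/ha, ALS inhibitor rates in g ai/ha. Injury versus solvent-blank controls was scored visually (0–100%) after 20–22 d.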

Series [7] concerns cleavers (GALAP, Galium aparine). Description: Greenhouse postemergence herbicidal effect. The procedure, abridged: as §2
Series [8] relates to R-PAPRH = Papaver rhoeas (corn poppy), herbicide-resistant. Description: Greenhouse postemergence herbicidal effect. The procedure, abridged: as §2
For series [9], the system named is purple deadnettle (LAMPU, Lamium purpureum). The experiment in a line: Greenhouse postemergence herbicidal effect. The procedure, abridged: as §2
Series [10] relates to field violet (VIOAR, Viola arvensis). Description: Greenhouse postemergence herbicidal effect. The procedure, abridged:
as §2

In series [11] the test system is bird's-eye speedwell (VERPE, Veronica persica). The experiment in a line: Greenhouse postemergence herbicidal effect. The procedure, abridged:
as §2

The subject of series [12] is maize (ZEAMX, Zea mays). The experiment in a line: Greenhouse postemergence crop phytotoxicity. Particulars: Compound A 10 g/ha; safener mefenpyr-diethyl. How it is done: (§3) Seeds of the desired test plant species were planted in a 90:10% v/v (volume/volume) mixture of PRO-MIX® BX (Premier Tech Horticulture, Quakertown, PA, USA) and PROFILE® GREENS GRADE™ (Profile Products LLC, Buffalo Grove, IL, USA) planting mixture, which typically has a pH of 5.2 to 6.2 and an organic matter content of at least 50 percent, in plastic pots with a surface area of 103.2 square centimeters (cm^2). […] The plants were grown for 7-36 days (d) in a greenhouse with an approximate 14-hour (h) photo-period which was maintained at about 23° C. during the day and 22° C. during the night. Nutrients and water were added on a regular basis and supplemental lighting was provided with overhead metal halide 1000-Watt lamps as necessary. The plants were employed for testing when they reached the second or third true leaf stage.
(§4) Emulsifiable concentrates of each of each pyridine carboxylate herbicide (Compound A or Compound B) were prepared at 100 grams acid equivalent per liter (g ae/L). The emulsifiable concentrates also included a safener, cloquintocet-mexyl, at 120 grams active ingredient per liter (g ai/L), unless otherwise noted below. An aliquot of each emulsifiable concentrate was placed in a 25 mL glass vial and diluted with an aqueous mixture of 1.25% (v/v) ACTIROB® B esterified rapeseed oil (Bayer Crop Science, Research Triangle Park, NC, USA) or MSO® Concentrate with LECI-TECH® methylated soybean oil (Loveland Products, Loveland, CO, USA) to obtain concentrated stock solutions at the highest application rate for each herbicide, based upon a 12 milliliter (mL) application volume at a rate of 187 liters per hectare (L/ha). The concentrated stock solutions were further diluted with an aqueous mixture of 1.25% v/v ACTIROB® B or MSO® Concentrate with LECI-TECH® to obtain stock solutions at reduced application rates for each herbicide. Spray solutions of the herbicide combinations (Compound A or Compound B plus ALS herbicide) were prepared by adding weighed amounts or aliquots of the ALS herbicides to the stock solutions of Compound A or Compound B to form 12-mL spray solutions in two- or three-way combinations. […]
(§5) The treated plants and control plants were placed in a greenhouse as described above and watered by sub-irrigation to prevent wash-off of the test compounds. After 20-22 d, the condition of the test plants as compared with that of the control plants was determined visually and scored on a scale of 0 to 100 percent where 0 corresponds to no injury and 100 corresponds to complete kill.

In series [13] the test system is rice (ORYSA, Oryza sativa). Description: Greenhouse postemergence crop phytotoxicity. The following applies: Compound A 10 g/ha; safener mefenpyr-diethyl. As for the experimental part: as §3, §4, §5
The subject of series [14] is turnip (BRSRR, Brassica rapa). Description: Greenhouse postemergence herbicidal effect. The procedure, abridged:
as §2

[15] abbreviates: Compound A 10 g/ha, safener mefenpyr-diethyl.

With `N#CCOC(=O)c1nc(-c2ccc3cc[nH]c3c2F)c(F)c(N)c1Cl` [Compound A, cyanomethyl 4-amino-3-chloro-5-fluoro-6-(7-fluoro-1H-indol-6-yl)pyridine-2-carboxylate], the “% visual injury” value in [1] amounted to 0%; in [5] (Compound A 10 g/ha), 8%; in series [6] (Compound A 10 g/ha), 93%; in series [6] (Compound A 15 g/ha) it was 95%; in [7] (Compound A 10 g/ha), 25%; in series [7] (Compound A 15 g/ha), 35%. For the same compound, the “% visual injury” value in series [8] (Compound A 10 g/ha) is on record as 93%; in series [8] (Compound A 15 g/ha), 93%; in series [9] (Compound A 10 g/ha) it was 75%; in series [9] (Compound A 15 g/ha), 75%; in series [10] (Compound A 10 g/ha), 5%; in series [10] (Compound A 15 g/ha), 5%. Also, the “% visual injury” value in series [11] (Compound A 10 g/ha) was 93%; in series [11] (Compound A 15 g/ha), 95%. Further, the “% visual injury, Obs” value in series [1] (safener mefenpyr-diethyl) is 10%; in [2], 10%; in series [3] (10 g/ha) it was 0%; in series [3] (setting [15]), 0%; in [4] it was 3%; in [5] (10 g/ha) it was 45%. Further, the “% visual injury, Obs” value in series [5] (setting [15]) came to 28%; in series [12], 5%; in [13], 5%. For the same compound, in series [1] (safener mefenpyr-diethyl), the “SORVU % visual injury Obs” value is 10%. For the same compound, in series [2], the “LOLMU % visual injury Obs” value was determined as 10%. The “AVEFA % visual injury Obs” value in [3] (setting [15]) stood at 0%. For the same compound, the “CYPES % visual injury Obs” value in series [5] (setting [15]) was found to be 28%. In addition, the “ZEAMX % visual injury Obs” value in series [12] is on record as 5%. Moreover, the “ORYSA % visual injury Obs” value in [13] amounted to 5%.

Consider `C#CCOC(=O)c1nc(-c2ccc3cc[nH]c3c2F)c(F)c(N)c1Cl` [Compound B, propargyl 4-amino-3-chloro-5-fluoro-6-(7-fluoro-1H-indol-6-yl)pyridine-2-carboxylate], for which the “Obs % visual injury” value in [14] (Compound B 10 g/ha) was 85%.

For the compound `COc1ncc(F)c2nc(S(=O)(=O)Nc3c(F)cccc3F)nn12` [Florasulam, florasulam], the “% visual injury” value is on record as 70% in series [6] (Florasulam 5 g/ha); 95% in series [7] (Florasulam 5 g/ha); 75% in series [8] (Florasulam 5 g/ha); 10% in [9] (Florasulam 5 g/ha); 10% in series [10] (Florasulam 5 g/ha); 10% in [11] (Florasulam 5 g/ha). Moreover, the “Obs % visual injury” value in series [14] (Florasulam 5 g/ha) is given as 95%.
